# Reference: US20130217694A1, “METHOD OF REDUCING THE SEVERITY OF INFLAMMATORY DERMATOLOGICAL CONDITIONS” (Allergan, Inc.., priority 2003, published 2013)
# “Also recorded” adds a separate entry of the source.
# What was measured:
# mice [1] = test: Sulprostone-induced tactile hypersensitivity in mice; format: in vivo, mouse; details: for analgesic activity in sulprostone-induced tactile hypersensitivity: result in words
# Experimental: The activity of a synthetic EP1/EP3 receptor-selective prostaglandin agonist, sulprostone, also was assayed.
# (§1) Spinal drug injections were performed as follows. […] Briefly, a sterile 30-gauge ½ inch needle attached to a microsyringe was inserted between the L5 and L6 vertebrae. The mouse was held firmly by the pelvic girdle in one hand, while the syringe was held in the other hand at an angle of approximately 20° above the vertebral column. The needle was inserted into the tissue to one side of the L6 spinous process, into the groove between the spinous and transverse processes. The needle angle was decreased to about 10°, and the needle slowly advanced forward into the intervertebral space until a pop was felt and there was a visible serpentine tail movement. Compounds were slowly injected in the subarachnoid space in a volume of 5 μl. Each compound was tested at multiple doses. The minimal efficacious dose was used for all subsequent experiments.
# (§2) Sensitivity to light touch was quantified by scoring the response of mice to light stroking of their flanks with a small paintbrush, which is not normally painful. […] Statistical calculations of significance for in vivo studies were done using a two-tailed Students t-test.
# [2] = target: T1, hamster α-1B adrenergic receptor (Mesocricetus auratus, UniProt P18841); format: cell-based; details: for hamster α1B % E: percent efficacy relative to phenylephrine; for agonist activity at the α-1B receptor: result in words
# T1 sequence (P18841 1-515): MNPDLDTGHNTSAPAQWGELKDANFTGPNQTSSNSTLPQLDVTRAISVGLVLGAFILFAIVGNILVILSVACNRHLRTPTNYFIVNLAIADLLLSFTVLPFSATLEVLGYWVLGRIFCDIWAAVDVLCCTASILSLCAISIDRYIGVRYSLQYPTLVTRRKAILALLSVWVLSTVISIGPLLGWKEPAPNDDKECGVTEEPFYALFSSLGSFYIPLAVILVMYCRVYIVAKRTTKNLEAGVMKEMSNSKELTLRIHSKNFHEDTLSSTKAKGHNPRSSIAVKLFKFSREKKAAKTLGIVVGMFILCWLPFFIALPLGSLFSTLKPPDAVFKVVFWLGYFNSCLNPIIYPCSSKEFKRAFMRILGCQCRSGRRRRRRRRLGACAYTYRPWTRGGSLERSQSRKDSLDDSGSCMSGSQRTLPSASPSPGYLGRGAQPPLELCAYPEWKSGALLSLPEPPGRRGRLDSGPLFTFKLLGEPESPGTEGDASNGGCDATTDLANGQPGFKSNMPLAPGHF
# Experimental: The bovine α-1A and hamster α-1B receptor supernatants were added, in varying amounts, to naive HEK293 cells, which were then incubated for 48 hours. The transduced cell populations were replated at a lower density and grown in media containing 0.25 ug/ml puromycin. […] Receptor density was measured in a prazosin radioligand binding assay.
# Intracellular Ca^+2 responses were measured as follows in HEK293 cells stably expressing either the bovine α-1A or hamster α-1B adrenergic receptor. Between 40,000 to 50,000 cells were plated per well in 96-well poly-D-lysine coated plates in 0.2 ml DMEM containing 10% heat-inactivated fetal calf serum, 1% antibiotic-antimycotic and 0.25 μg/ml puromycin one day prior to use. Cells were washed twice with HBSS supplemented with 10 mM HEPES, 2.0 mM CaCl2 and 2.5 mM probenicid, and subsequently incubated at 37° C. for 60 minutes with 4 μM Fluo-4 (Molecular Probes; Eugene, Oreg.). The extracellular dye was washed from the plates twice prior to placing the plates in the fluorometric imaging plate reader (FLIPR; Molecular Devices; Sunnyvale, Calif.). Ligands were diluted in HBSS and aliquoted into a 96-well microplate. Drugs were tested over the concentration range of 0.64 nM to 10,000 nM. Data for Ca^+2 responses were obtained in arbitrary fluorescence units.
# mice [3] = test: NMDA-induced tactile hypersensitivity in mice; format: in vivo, mouse; details: result in words
# Experimental: as §1, §2
# mice [4] = details: intraperitoneal dosing, wildtype mice; result in words
# Experimental: The tactile hypersensitivity of 5-6 mice per group was scored every five minutes between 15 and 50 minutes following intraperitoneal dosing. […] In addition, the locomoter activity of 5-6 mice per group was measured in a five minute period 30 minutes following intraperitoneal dosing. The locomoter activity relative to vehicle-treated animals was expressed as a percentage; percentage sedation was calculated as 100% minus the percent locomoter activity.
Structure (SMILES),analgesic activity in sulprostone-induced tactile hypersensitivity (mice [1]; wildtype mice),analgesic activity in sulprostone-induced tactile hypersensitivity (mice [1]; α-2A knockout mice),"analgesic activity of clonidine co-administered with prazosin (mice [1]; α-2C knockout mice, prazosin 100 ng/kg i.p., clonidine 400 ng i.t., sulprostone 200 ng i.t.)",analgesic activity in sulprostone-induced tactile hypersensitivity (mice [1]; α-2C knockout mice),hamster α1B % E [2] [%],agonist activity at the α-1B receptor [2],inhibition of NMDA-induced tactile hypersensitivity (mice [3]; wildtype mice),inhibition of NMDA-induced tactile hypersensitivity (mice [3]; α-2A knockout mice),inhibition of NMDA-induced tactile hypersensitivity (mice [3]; α-2C knockout mice),alleviation of sulprostone-induced tactile hypersensitivity in the absence of sedation (mice [4])
Clc1cccc(Cl)c1N=C1NCCN1 [Clonidine],analgesic in wildtype mice; also recorded: analgesic in wild type mice,not in α-2A or α-2C knockout mice; also recorded: neither clonidine nor brimonidine were analgesic,restore the analgesic activity,not in α-2A or α-2C knockout mice; also recorded: not in α-2C knockout mice,63,partial agonists,complete inhibition of tactile hypersensitivity,neither clonidine nor brimonidine inhibited,complete inhibition of tactile hypersensitivity,–
"Brc1c(NC2=NCCN2)ccc2nccnc12 [Brimonidine, 5-bromo-6-(2-imidazolin-2-ylamino)quinoxaline]",analgesic,neither clonidine nor brimonidine were analgesic,–,analgesic,12,no activity,complete inhibition of tactile hypersensitivity,neither clonidine nor brimonidine inhibited,complete inhibition of tactile hypersensitivity,alleviates sulprostone-induced tactile hypersensitivity in the absence of sedation
